Source: ChEMBL document CHEMBL1131748, “Nitroquinolones with broad-spectrum antimycobacterial activity in vitro” (1999)
In brackets after ≈: the same amount, converted by molar mass.

How the values were obtained:
Format in all cases: functional
MT4 = assay: Concentration required to reduce the viability of mock-infected MT-4 cells by 50%; conditions: Homo sapiens
Shigella [1] = assay: Minimum bactericidal concentration required in vitro against Shigella
Mycobacterium avium [2] = assay: Minimum inhibitory concentration required in vitro to reduce the number of viable of Mycobacterium avium complex (MAC) ATCC 49601 by 50%
Staphylococcus aureus [3] = assay: Minimum bactericidal concentration required in vitro against Staphylococcus aureus
Salmonella [4] = assay: Minimum inhibitory concentration required in vitro against Salmonella
[5] = system: Mycobacterium tuberculosis; assay: Minimum inhibitory concentration required in vitro to reduce the number of viable of Mycobacterium tuberculosis ATCC 27294 by 90%
Shigella [6] = assay: Minimum inhibitory concentration required in vitro against Shigella
Streptococcus [7] = assay: Minimum inhibitory concentration required in vitro against Streptococcus D
Streptococcus [8] = assay: Minimum bactericidal concentration required in vitro against Streptococcus D
Salmonella [9] = assay: Minimum bactericidal concentration required in vitro against Salmonella
Mycobacterium avium [10] = assay: Minimum inhibitory concentration required in vitro to reduce the number of viable of Mycobacterium avium complex (MAC) ATCC 49601 by 90%
Staphylococcus aureus [11] = assay: Minimum inhibitory concentration required in vitro against Staphylococcus aureus
[12] = system: Mycobacterium tuberculosis; assay: Minimum inhibitory concentration required in vitro to reduce the number of viable of Mycobacterium tuberculosis clinical isolate 1104 by 90%
[13] = system: Mycobacterium tuberculosis; assay: Minimum inhibitory concentration required in vitro to reduce the number of viable of Mycobacterium tuberculosis ATCC 27294 by 50%
[14] = system: Mycolicibacterium smegmatis; assay: Minimum inhibitory concentration required in vitro to reduce the number of viable of Mycobacterium smegmatis ATCC 19420 by 90%
[15] = system: Mycolicibacterium smegmatis; assay: Minimum inhibitory concentration required in vitro to reduce the number of viable of Mycobacterium smegmatis ATCC 19420 by 50%
[16] = system: Mycobacterium tuberculosis; assay: Minimum inhibitory concentration required in vitro to reduce the number of viable of Mycobacterium tuberculosis clinical isolate 1104 by 50%
[17] = system: Mycolicibacterium fortuitum; assay: Minimum inhibitory concentration required in vitro to reduce the number of viable of Mycobacterium fortuitum (clinical isolate) by 90%
[18] = system: Mycolicibacterium fortuitum; assay: Minimum inhibitory concentration required in vitro to reduce the number of viable of Mycobacterium fortuitum (clinical isolate) by 50%

SMILES | CC50 (MT4) [µM] | MBC (Shigella [1]) [µM] | MIC50 (Mycobacterium avium [2]) [µM] | MBC (Staphylococcus aureus [3]) [µM] | MIC (Salmonella [4]) [µM] | MIC90 [5] [µM] | MIC (Shigella [6]) [µM] | MIC (Streptococcus [7]) [µM] | MBC (Streptococcus [8]) [µM] | MBC (Salmonella [9]) [µM] | MIC90 (Mycobacterium avium [10]) [µM] | MIC (Staphylococcus aureus [11]) [µM] | MIC90 [12] [µM] | MIC50 [13] [µM] | MIC90 [14] [µM] | MIC50 [15] [µM] | MIC50 [16] [µM] | MIC90 [17] [µM] | MIC50 [18] [µM]
O=C(O)c1cn(C2CC2)c2cc(N3CCNCC3)c(F)cc2c1=O [CIPROFLOXACIN] | 60 | 0.01 (≈ 0.00331 µg/mL) | 2 (≈ 0.663 µg/mL) | 0.4 (≈ 0.133 µg/mL) | 0.01 (≈ 0.00331 µg/mL) | 3 (≈ 0.994 µg/mL) | 0.01 (≈ 0.00331 µg/mL) | 0.4 (≈ 0.133 µg/mL) | 0.8 (≈ 0.265 µg/mL) | 0.01 (≈ 0.00331 µg/mL) | 3 (≈ 0.994 µg/mL) | 0.4 (≈ 0.133 µg/mL) | – | – | – | – | – | – | –
CC(C)(C)Nc1cc2c(cc1[N+](=O)[O-])c(=O)c(C(=O)O)cn2C(C)(C)C | 140 | 6 (≈ 2.17 µg/mL) | 1.2 (≈ 0.434 µg/mL) | 0.05 (≈ 0.0181 µg/mL) | 3 (≈ 1.08 µg/mL) | 6 (≈ 2.17 µg/mL) | 6 (≈ 2.17 µg/mL) | 0.05 (≈ 0.0181 µg/mL) | 0.05 (≈ 0.0181 µg/mL) | 6 (≈ 2.17 µg/mL) | 12 (≈ 4.34 µg/mL) | 0.05 (≈ 0.0181 µg/mL) | 6 (≈ 2.17 µg/mL) | 1.4 (≈ 0.506 µg/mL) | 1.5 (≈ 0.542 µg/mL) | 0.5 (≈ 0.181 µg/mL) | 1.5 (≈ 0.542 µg/mL) | – | –
CC1COc2c(N3CCN(C)CC3)c(F)cc3c(=O)c(C(=O)O)cn1c23 (stereo not drawn) [OFLOXACIN] | > 200 | 0.4 (≈ 0.145 µg/mL) | 1.5 (≈ 0.542 µg/mL) | 0.8 (≈ 0.289 µg/mL) | 0.4 (≈ 0.145 µg/mL) | 3 (≈ 1.08 µg/mL) | 0.4 (≈ 0.145 µg/mL) | 1.5 (≈ 0.542 µg/mL) | 1.5 (≈ 0.542 µg/mL) | 0.4 (≈ 0.145 µg/mL) | 3 (≈ 1.08 µg/mL) | 0.8 (≈ 0.289 µg/mL) | 3 (≈ 1.08 µg/mL) | 3 (≈ 1.08 µg/mL) | 4 (≈ 1.45 µg/mL) | 2 (≈ 0.723 µg/mL) | 2 (≈ 0.723 µg/mL) | 5 (≈ 1.81 µg/mL) | 2 (≈ 0.723 µg/mL)
O=C(O)c1cn(C2CC2)c2cc(NC3CC3)c([N+](=O)[O-])cc2c1=O | 40 | 1.5 (≈ 0.494 µg/mL) | > 200 | 1.5 (≈ 0.494 µg/mL) | 1.5 (≈ 0.494 µg/mL) | > 200 | 1.5 (≈ 0.494 µg/mL) | 0.8 (≈ 0.263 µg/mL) | 0.8 (≈ 0.263 µg/mL) | 1.5 (≈ 0.494 µg/mL) | – | 0.8 (≈ 0.263 µg/mL) | > 200 | ≥ 200 | 50 (≈ 16.5 µg/mL) | 3.2 (≈ 1.05 µg/mL) | 72 (≈ 23.7 µg/mL) | 100 (≈ 32.9 µg/mL) | 3.6 (≈ 1.19 µg/mL)
CC(C)(C)n1cc(C(=O)O)c(=O)c2cc([N+](=O)[O-])c(NC3CC3)cc21 | ≥ 200 | 25 (≈ 8.63 µg/mL) | 47 (≈ 16.2 µg/mL) | 10 (≈ 3.45 µg/mL) | 25 (≈ 8.63 µg/mL) | > 200 | 25 (≈ 8.63 µg/mL) | 5 (≈ 1.73 µg/mL) | 10 (≈ 3.45 µg/mL) | 25 (≈ 8.63 µg/mL) | > 200 | 2.5 (≈ 0.863 µg/mL) | > 200 | 31 (≈ 10.7 µg/mL) | 7 (≈ 2.42 µg/mL) | 2 (≈ 0.691 µg/mL) | 47 (≈ 16.2 µg/mL) | – | > 125
CC(C)(C)Nc1cc2c(cc1F)c(=O)c(C(=O)O)cn2C(C)(C)C | > 200 | 25 (≈ 8.36 µg/mL) | > 200 | 12 (≈ 4.01 µg/mL) | 12 (≈ 4.01 µg/mL) | ≥ 200 | 12 (≈ 4.01 µg/mL) | 12 (≈ 4.01 µg/mL) | 12 (≈ 4.01 µg/mL) | 12 (≈ 4.01 µg/mL) | – | 12 (≈ 4.01 µg/mL) | – | 126 (≈ 42.1 µg/mL) | > 200 | 34.5 (≈ 11.5 µg/mL) | > 200 | 129 (≈ 43.1 µg/mL) | 36 (≈ 12 µg/mL)
CC(C)(C)Nc1cc2c(cc1N)c(=O)c(C(=O)O)cn2C(C)(C)C | > 200 | – | 140 (≈ 46.4 µg/mL) | – | > 125 | > 200 | > 125 | > 125 | – | – | > 200 | > 125 | > 200 | 168 (≈ 55.7 µg/mL) | – | > 125 | > 200 | – | > 125
Nc1cc2c(=O)c(C(=O)O)cn(C3CC3)c2cc1NC1CC1 | 200 | – | 129 (≈ 38.6 µg/mL) | 25 (≈ 7.48 µg/mL) | > 200 | – | > 200 | 50 (≈ 15 µg/mL) | 50 (≈ 15 µg/mL) | – | > 200 | 25 (≈ 7.48 µg/mL) | – | > 200 | > 200 | 156 (≈ 46.7 µg/mL) | > 200 | – | 200 (≈ 59.9 µg/mL)
O=C(O)c1cn(C2CC2)c2cc(NC3CC3)c(F)cc2c1=O | > 200 | 25 (≈ 7.56 µg/mL) | > 200 | 12 (≈ 3.63 µg/mL) | 12 (≈ 3.63 µg/mL) | – | 12 (≈ 3.63 µg/mL) | 12 (≈ 3.63 µg/mL) | 12 (≈ 3.63 µg/mL) | 12 (≈ 3.63 µg/mL) | > 200 | 12 (≈ 3.63 µg/mL) | – | > 200 | > 200 | 150 (≈ 45.3 µg/mL) | > 200 | > 200 | > 125
CC(C)(C)Nc1cc2c(cc1[N+](=O)[O-])c(=O)c(C(=O)O)cn2C1CC1 | 192 | 25 (≈ 8.63 µg/mL) | 54 (≈ 18.6 µg/mL) | 1.2 (≈ 0.414 µg/mL) | 25 (≈ 8.63 µg/mL) | > 200 | 25 (≈ 8.63 µg/mL) | 0.6 (≈ 0.207 µg/mL) | 2.5 (≈ 0.863 µg/mL) | 25 (≈ 8.63 µg/mL) | > 200 | 0.6 (≈ 0.207 µg/mL) | > 200 | 35 (≈ 12.1 µg/mL) | 5 (≈ 1.73 µg/mL) | 2 (≈ 0.691 µg/mL) | 16 (≈ 5.53 µg/mL) | – | > 125
